# Test results published in US20100278837A1, “Compositions And Methods For Reducing Cancer And Inflammation” (The Regents of the University of California, priority 2009, published 2010).
# Tested on: CD11b+ cells adhesion to endothelium
# Assay: Adhesion of CD11b+ cells to endothelium (Example 1 adhesion assay)
# Type: cell-based, murine
# Conditions: SDF-1α, TCM or IL-1β (and other chemoattractant) induced
# Method: TCM was prepared from serum-free media cultured on LLC cells for 18 h and filtered through 0.22 μm filters. 10^5 calcein-AM labelled human or murine CD11b+ cells in TCM or DMEM containing 200 ng/ml SDF-1α, IL-1β, IL-6, IL-8 or VEGF-A (R&D Systems) were incubated on HUVEC monolayers or on plastic plates coated with 5 μg/ml recombinant soluble VCAM-1 (R&D Systems). Adherent cells were quantified using a fluorescence activated plate reader (GeniosPro, TECAN). In some assays, cells were also incubated in 25 μg/ml anti-integrin α4β1 (PS2 for murine cells and HP2/1 for human cells, gifts from Biogen-Idec) and isotype control antibodies (IgG2bk for murine cells and IgG1 for human cells). In some studies, cells were incubated in 10 μM pan PI3K inhibitors […] or TG020, in PI3kinase α inhibitor PI3K75, PI3kinase γ/δ inhibitor TG115 and an inert control.
compound,measurement,value
c1cc(CN2CCCNCCNCCCNCC2)ccc1CN1CCCNCCNCCCNCC1 [AMD3100],CD11b+ cell adhesion to endothelium,"inhibited SDF-1α, and TCM-induced but not IL-1β induced adhesion"
